Measurements as given in US20080108574A1, “MELANOCORTIN RECEPTOR MEDIATED MODULATION OF NEUROGENESIS” (BrainCells, Inc., priority 2006, published 2008).

Experiments:
mGluR3 = mGluR3 (Homo sapiens, UniProt Q14832); details: read-out: IC50 against mGluR3; cited from earlier work
Group I receptors = details: sub-mM concentrations; cited from earlier work
Group III receptors = details: sub-mM concentrations; cited from earlier work
mGluR2 = mGluR2 (Homo sapiens, UniProt Q14416); details: read-out: IC50 against mGluR2; cited from earlier work
human mGlu2 = human mGlu2 (Homo sapiens, UniProt Q14416); details: in vitro, agonist; read-out: EC50 against human mGlu2 receptors; cited from earlier work
human mGlu3 = human mGlu3 (Homo sapiens, UniProt Q14832); details: in vitro, agonist; read-out: EC50 against human mGlu3 receptors; cited from earlier work
AMPA iGlu receptors = details: cited from earlier work
NMDA iGlu receptors = details: cited from earlier work
KA iGlu receptors = details: cited from earlier work
[1] = test system: human neural stem cells (hNSCs)
Procedure: In one non-limiting example neurogenesis, a neurogenic response, and neurodifferentiation are all measured in an in vitro assay as follows. […] Mitogen-free test media with a positive control is used for neuronal differentiation, and basal media without growth factors serves as a negative control. Neurogenesis is determined, for example, by measuring the proliferation and/or differentiation of the hNSCs in the presence of varying concentrations of test compound compared to the absence of the test compound (negative control). […] Neurodifferentiation is measured, for example, by detecting neurodifferentiation specific expression markers which methods are known in the art.
(§1) A positive control for neuronal differentiation was used along with basal media without growth factors as a negative control.
as §1

Chain of mGluR2 (Q14416 19-872): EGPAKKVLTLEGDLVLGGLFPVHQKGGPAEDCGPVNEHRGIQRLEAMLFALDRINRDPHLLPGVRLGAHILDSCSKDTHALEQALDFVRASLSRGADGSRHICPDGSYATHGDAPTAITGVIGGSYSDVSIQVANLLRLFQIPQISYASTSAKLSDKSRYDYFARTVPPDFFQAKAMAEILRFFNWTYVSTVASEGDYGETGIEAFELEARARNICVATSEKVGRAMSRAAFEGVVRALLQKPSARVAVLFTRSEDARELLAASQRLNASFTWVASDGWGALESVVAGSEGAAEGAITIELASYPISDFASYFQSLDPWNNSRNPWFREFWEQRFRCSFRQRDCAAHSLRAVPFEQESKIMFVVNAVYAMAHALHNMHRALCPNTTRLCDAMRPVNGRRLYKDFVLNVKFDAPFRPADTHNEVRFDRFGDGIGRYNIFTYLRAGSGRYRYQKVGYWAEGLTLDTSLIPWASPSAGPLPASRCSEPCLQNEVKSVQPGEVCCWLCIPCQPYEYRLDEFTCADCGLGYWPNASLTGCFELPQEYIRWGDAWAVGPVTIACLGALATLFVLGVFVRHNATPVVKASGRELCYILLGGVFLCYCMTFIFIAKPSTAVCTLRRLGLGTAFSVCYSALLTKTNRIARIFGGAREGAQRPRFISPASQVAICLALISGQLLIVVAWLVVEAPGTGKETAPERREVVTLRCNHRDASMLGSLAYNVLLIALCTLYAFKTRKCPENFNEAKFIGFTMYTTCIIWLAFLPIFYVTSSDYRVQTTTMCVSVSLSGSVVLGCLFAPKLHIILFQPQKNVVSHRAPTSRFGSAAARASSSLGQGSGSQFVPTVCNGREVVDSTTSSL
Chain of human mGlu2 (Q14416 19-872): as above
Chain of human mGlu3 (Q14832 23-879): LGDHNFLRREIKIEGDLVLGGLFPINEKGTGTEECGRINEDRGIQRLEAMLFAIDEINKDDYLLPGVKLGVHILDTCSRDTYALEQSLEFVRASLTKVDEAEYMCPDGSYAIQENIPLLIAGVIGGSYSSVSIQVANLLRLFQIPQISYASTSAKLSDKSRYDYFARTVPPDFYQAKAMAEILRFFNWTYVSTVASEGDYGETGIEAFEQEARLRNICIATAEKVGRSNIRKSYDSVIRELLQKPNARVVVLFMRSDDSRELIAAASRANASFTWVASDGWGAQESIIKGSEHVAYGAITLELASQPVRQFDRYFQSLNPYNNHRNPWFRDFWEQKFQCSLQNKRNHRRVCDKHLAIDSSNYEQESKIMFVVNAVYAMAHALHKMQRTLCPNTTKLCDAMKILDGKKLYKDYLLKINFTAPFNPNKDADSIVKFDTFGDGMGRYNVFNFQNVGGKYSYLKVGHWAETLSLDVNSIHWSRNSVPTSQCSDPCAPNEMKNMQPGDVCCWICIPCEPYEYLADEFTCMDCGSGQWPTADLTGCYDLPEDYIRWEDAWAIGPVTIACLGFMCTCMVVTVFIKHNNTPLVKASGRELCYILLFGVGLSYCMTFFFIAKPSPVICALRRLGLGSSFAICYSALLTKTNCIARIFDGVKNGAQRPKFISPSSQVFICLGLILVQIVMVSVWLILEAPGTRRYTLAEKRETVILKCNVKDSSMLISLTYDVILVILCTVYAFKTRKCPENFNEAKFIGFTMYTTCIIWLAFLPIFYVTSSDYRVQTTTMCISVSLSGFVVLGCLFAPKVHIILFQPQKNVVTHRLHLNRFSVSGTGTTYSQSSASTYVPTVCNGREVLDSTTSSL
Chain of mGluR3 (Q14832 23-879): as above

In the case of `NC1(C(=O)O)CCc2cc(P(=O)(O)O)ccc21` (racemic) [APICA, (RS)-1-amino-5-phosphonoindan-1-carboxylic acid], the IC50 (mGluR3) is listed as about 30 µM, the “activity against Group I receptors” value (Group I receptors) is listed as “no appreciable activity” and the “activity against Group III receptors” value (Group III receptors) is listed as “no appreciable activity”. For the same molecule, the IC50 (mGluR2) was about 30 µM.

For `N[C@@]1(C(=O)O)CO[C@H]2[C@H](C(=O)O)[C@H]21` [LY379268, (−)-2-Oxa-4-aminobicyclohexane-4,6-dicarboxylic acid], the EC50 (human mGlu2) is listed as under 0.01 µM and the EC50 (human mGlu3) is listed as under 0.01 µM.

In the case of `N[C@](CC1c2ccccc2Oc2ccccc21)(C(=O)O)[C@H]1C[C@@H]1C(=O)O` [LY341495, (2S)-2-amino-2-(1S,2S-2-carboxycycloprop-1-yl)-3-(xanth-9-yl)propanoic acid], the “activity against AMPA iGlu receptors” value (AMPA iGlu receptors) is listed as “substantially inactive”, the “activity against NMDA iGlu receptors” value (NMDA iGlu receptors) is listed as “substantially inactive” and the “activity against KA iGlu receptors” value (KA iGlu receptors) is listed as “substantially inactive”.

For `Clc1ccc2c(c1)N=C(N1CCNCC1)c1ccccc1N2` [N-desmethylclozapine], the neurogenic activity ([1]; in assays as disclosed herein) was “highly neurogenic”.

With `CCCC[C@H](NC(C)=O)C(=O)N[C@H]1CC(=O)NCCCC[C@@H](C(=O)O)NC(=O)[C@H](Cc2c[nH]c3ccccc23)NC(=O)[C@H](CCCNC(=N)N)NC(=O)[C@@H](Cc2ccccc2)NC(=O)[C@H](Cc2c[nH]cn2)NC1=O` [PT-141, bremelanotide] the “effect on neuronal differentiation” value ([1]; hNSCs, dose response, TUJ-1 staining) was “promoted neuronal differentiation” and the EC50 ([1]; read-out: EC50, neuronal differentiation, hNSCs, percent of neuronal positive control, basal media values subtracted) was 0.2 µM.
